Tests used:
Caco-2 cell line = test: bi-directional permeability in Caco-2 cell line; format: in vitro ADME, human
Experimental: Metabolic stability was assessed in mouse and rat liver microsomes. Microsomes are subcellular fractions of hepatocytes and contain CYP450s, the predominant enzymes involved in first-pass metabolism.[66] […] A plasma protein binding assay was performed to assess the extent of compound binding to plasma proteins. This is key as only unbound compound is free to distribute and exert a pharmacological effect. […] To assess the potential for this sub-class of SSAs to be developed as drugs for oral administration, Caco-2 permeability assays were also performed, as a cellular model indicative of human intestinal permeability. […]
Sample analysis was by electrospray ionisation. […]
Bi-directional Permeability in Caco-2 Cell Line:
The bi-directional permeability in Caco-2 cell lines was determined by seeding cells onto an HTS Transwell plate. Cells were cultivated for 14-18 days in a cell culture incubator at 37 °C, 5 % CO2, 95 % relative humidity. Cell culture medium was replaced every other day. To assess monolayer integrity the transepithelial electrical resistance (TEER) across the monolayer was measured using Millicell Epithelial volt-ohm meter prior to assay and Lucifer yellow (LY) fluorescence measurement post-assay.
Test and control compounds were prepared in DMSO and diluted in Hank’s Balanced Saline […]
Solution (HBSS, pH 7.4) to a final concentration of 5 or 10 µM. Compound was added to the […]
donor compartment of the transwell plate for both apical to basolateral (A>B) and basolateral […]
to apical (B>A) measurements, with blank HBSS being added to the receiver compartment.
The transwell plate was then incubated at 37 °C, 5 % CO2 for 2 hours.

[1] = protein binding in human plasma by equilibrium dialysis; format: in vitro ADME
Experimental: Metabolic stability was assessed in mouse and rat liver microsomes. […] A plasma protein binding assay was performed to assess the extent of compound binding to plasma proteins. This is key as only unbound compound is free to distribute and exert a pharmacological effect. […] To assess the potential for this sub-class of SSAs to be developed as drugs for oral administration, Caco-2 permeability assays were also performed, as a cellular model indicative of human intestinal permeability. […] The […] MS/MS analysis. Samples were analysed using a Shimadzu liquid chromatography system coupled to a Triple Quad 6500+ mass spectrometry (AB Inc.) Separation of compounds was achieved using an HSS T3 column (50 x 2.1 mm) at a temperature of 40 °C and a binary mobile phase gradient at a flow rate of 0.7 mL/min. […] This was ramped to 95 % solvent B at 0.7 minutes, held for 0.5 minutes and then […] returned to initial conditions. Sample analysis was by electrospray ionisation. Protein Binding Measurements in Human Plasma by Using Equilibrium Dialysis Method : The fraction unbound in human plasma (P -KB, Ltd People's hospital of Shandong) were measured using 96-well Equilibrium Dialysis Plate (HTDialysis LLC, Gales Ferry, CT). Human plasma containing 5 μM test compound were dialysed against dialysis buffer (PBS) with initial samples taken to allow for assessment of plasma stability and recovery before the plate was incubated for 6 hours at 37 °C at 5 % CO2. Samples were removed at 6 hours, and all samples […] appropriate analytical internal standard. Samples were centrifuged at 3,220 g for 30 minutes (Eppendorf 5810R) to precipitate protein and enable sampling of supernatant prior to appropriate dilution for liquid chromatography mass -spectrometry (LC-MS/MS) analysis. Samples were analysed using a Shimadzu coupled to a triple Quad 6500 + (AB Inc., Illinois). Separation of analytes was achieved using a Xselect Hss T3 (2.1 x 50 mm) column at a temperature of 40 °C and a binary mobile phase gra dient at a flow rate of 0.8 mL/min. Initial […] formic acid in acetonitrile); this was ramped to 98 % B at 0.5 min, held for 0.4 min and then immediately returned to initial conditions. Sample analysis was by electrospray ionisation in positive ion mode. Bi-directional Permeability in Caco-2 Cell Line: The bi-directional permeability in Caco-2 cell lines was determined by seeding cells onto an HTS Transwell plate. Cells were cultivated for 14-18 days in a cell culture incubator at 37 °C, 5 % CO2, 95 % relative humidity. Cell culture medium was replaced every other day. To assess monolayer integrity the transepithelial electrical resistance (TEER) across the monolayer was measured using Millicell Epithelial volt-ohm meter prior to assay and Lucifer yellow (LY) fluorescence measurement post-assay. Test and control compounds were prepared in DMSO and diluted in Hank's Balanced Saline […] Compound was added to the donor compartment of the transwell plate for both apical to basolateral (A>B) and basolateral to apical (B>A) measurements, with blank HBSS being added to the receiver compartment. The transwell plate was then incubated at 37 °C, 5 % CO2 for 2 hours. 5

[2] = Caco-2, 5 or 10 µM, HBSS pH 7.4, 2 hours

| Compound | Efflux Ratio (Caco-2 cell line; Caco-2) | Recovery (%) AP-BL (Caco-2 cell line; Caco-2) [%] | Recovery (%) BL-AP (Caco-2 cell line; Caco-2) [%] | Papp (A-B) (Caco-2 cell line; [2]) | Papp (B-A) (Caco-2 cell line; [2]) | remaining at 6 h, 5 µM ([1]; human plasma, 5 µM, 37 °C) [%] | % Unbound ([1]; human, plasma) [%] | fraction unbound ([1]; human, plasma) |
| --- | --- | --- | --- | --- | --- | --- | --- | --- |
| C[C@H]1O[C@@H](O[C@H]2[C@@H](O)C[C@H](O[C@H]3[C@@H](O)C[C@H](O[C@H]4CC[C@@]5(C)[C@H](CC[C@@H]6[C@@H]5C[C@@H](O)[C@]5(C)[C@@H](C7=CC(=O)OC7)CC[C@]65O)C4)O[C@@H]3C)O[C@@H]2C)C[C@H](O)[C@@H]1O [Digoxin, reference compound] | 45.59 | 95.92 | 99.20 | 0.42 10-6, cm/s | 18.74 10-6, cm/s | – | – | – |
| CC(=O)N1CCN(c2ccc(OCC3COC(Cn4ccnc4)(c4ccc(Cl)cc4Cl)O3)cc2)CC1 (centres unmarked) [Ketoconazole, reference compound] | – | – | – | – | – | 101 | 0.86 | 0.0086 |

— PMC12645191, “Dicarboxylate and dicarboxylic acid appended supramolecular self-associating amphiphiles as antimicrobial agents against high priority bacterial pathogens” (Organic & Biomolecular Chemistry, 2025)
